Data from patent US11090310B2, “Methods and compositions for treating hypertriglyceridemia” (THE REGENTS OF THE UNIVERSITY OF CALIFORNIA, priority 2016, dated 2021).

T1: V5-tagged human LPL (Homo sapiens, UniProt P06858)
T1 construct: made in house
T1 sequence (P06858 28-475): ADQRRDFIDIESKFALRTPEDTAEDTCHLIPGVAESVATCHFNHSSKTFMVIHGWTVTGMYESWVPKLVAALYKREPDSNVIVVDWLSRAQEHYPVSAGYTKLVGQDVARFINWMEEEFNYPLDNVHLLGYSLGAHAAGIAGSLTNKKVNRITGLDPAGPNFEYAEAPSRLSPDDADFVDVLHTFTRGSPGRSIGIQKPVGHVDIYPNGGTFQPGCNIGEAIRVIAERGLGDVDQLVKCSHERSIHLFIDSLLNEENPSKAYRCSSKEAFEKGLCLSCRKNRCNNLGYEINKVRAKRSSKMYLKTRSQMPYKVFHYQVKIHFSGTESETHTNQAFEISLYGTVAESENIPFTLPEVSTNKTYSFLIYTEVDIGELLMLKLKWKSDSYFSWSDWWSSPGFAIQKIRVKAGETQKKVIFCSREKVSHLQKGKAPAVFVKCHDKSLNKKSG


Key:
[1] = Plasma triglyceride levels of patients with GPIHBP1 autoantibodies under drug treatment (case follow-up); format: in vivo, human; settings: for effect of treatment on plasma triglycerides / hypertriglyceridemia (in words): case reports of single patients (111, 157, 164)
autoantibodies = settings: in patients, literature reports; cited from earlier work
V5-tagged human LPL = biological target: T1, V5-tagged human LPL; test: Cell-based LPL-GPIHBP1 binding assay of GPIHBP1 variants; settings: transfected CHO pgsA-745 cells or HUVEC
Procedure: Expression vectors for S-protein-tagged wild-type (wt) GPIHBP1, GPIHBP1-G175R, and GPIHBP1-W109S (or the empty vector) were transfected into CHO pgsA-745 cells or human umbilical vein endothelial cells (HUVEC). After 1 day, the cells were washed three times in PBS and incubated for 1 h at 4° C. with V5-tagged human LPL (900 ng/well). Then the cells were washed six times in PBS, and cell lysates were collected in RIPA buffer (Sigma) containing a protease inhibitor cocktail (Roche). Proteins were separated by SDS-PAGE, and western blots were performed under reducing conditions with a goat antibody against the S-protein tag (Abcam, 5 μg/ml), followed by an IRdye680-donkey anti-goat IgG (LI-COR, 1:2000) and an IRdye800-V5 antibody (1:500).

Row | Molecule | effect of treatment on plasma triglycerides / hypertriglyceridemia (in words) [1] | reduction of autoantibodies (autoantibodies) | LPL binding by GPIHBP1 variant expressed on cells (V5-tagged human LPL) | also measured
1 | COc1c(C)c2c(c(O)c1C/C=C(\C)CCC(=O)OCCN1CCOCC1)C(=O)OC2 [Mycophenolate mofetil] | failed to lower the plasma triglyceride levels |  |  | Follow-up (mg/dl): follow-up plasma triglyceride levels after treatment ([1]; single patients: 101 (prednisolone 10 mg/day, salazosulfapyridine 1000 mg/day), 111, 164 (mycophenolate mofetil 750 + 500 mg/day, hydroxychloroquine 100 mg/day)): 2,573-4,085 mg/dl
2 | Belimumab |  | reduce autoantibodies |  | 
3 | Rituximab |  | reducing the production of autoantibodies in patients |  | 
4 | n−3 fatty acids | resistant |  |  | 
5 | GPIHBP1-G175R: GPIHBP1 with G175R missense substitution in the carboxyl-terminal hydrophobic domain (protein, left off: small tags and cut ends, GPIHBP1 with G175R missense substitution in the carboxyl-terminal hydrophobic domain) QTQQEEEEEDEDHGPDDYDEEDEDEVEEEETNRLPGGRSRVLLRCYTCKSLPRDERCNLTQNCSHGQTCTTLIAHGNTESGLLTTHSTWCTDSCQPITKTVEGTQVTMTCCQSSLCNVPPWQSSRVQDPTG |  |  | binds LPL avidly | 
6 | GPIHBP1-W109S: mutant GPIHBP1 which lacks the ability to bind LPL, used as control (protein, left off: small tags and cut ends) QTQQEEEEEDEDHGPDDYDEEDEDEVEEEETNRLPGGRSRVLLRCYTCKSLPRDERCNLTQNCSHGQTCTTLIAHGNTESGLLTTHSTSCTDSCQPITKTVEGTQVTMTCCQSSLCNVPPWQSSRVQDPTG |  |  | lacks the ability to bind LPL | 
